According to patent US10137110B2, “1-cyclohexyl-2-phenylaminobenzimidazoles as mIDH1 inhibitors for the treatment of tumors” (Bayer Pharma Aktiengesellschaft, priority 2014, dated 2018):

Columns and labels:
[1] = target: mutated isocitrate dehydrogenase (mIDH) protein overexpressed in LN229 R132H cells (Homo sapiens (Human), UniProt O75874, R132H); assay: Mutant IDH1 cellular assay (2-HG in medium of LN229 R132H cells); format: cell-based; conditions: 24 hours, fluorescence readout
Method: Mutant IDH1 Cellular Assay
Levels of (2R)-2-hydroxyglutarate (2HG) were measured in medium of a cell line with overexpression of mutated isocitrate dehydrogenase (mIDH) protein. mIDH catalyzes the NADPH-dependent reduction of alpha-ketoglutarate to 2-HG. Cells (LN229 R132H, Mohrenz et al., Apoptosis (2013) 18:1416-1425) were grown in DMEM containing 10% FCS. They were harvested by trypsin and seeded into 96-well plates. Cells were incubated overnight at 37° C. in 5% CO2. The next day test compounds were added to each cell well. The final concentration of DMSO was 0.1% and DMSO controls were included. The plates were then placed in an incubator for 24 hours.
2-HG was measured according to Balss et al. (Acta Neuropathol (2012) 124: 883-891). Briefly, HClO4 was added to each well and the plates were centrifuged. Aliquots are removed and incubated with hydroxyglutarate dehydrogenase (HGDH), diaphorase, NAD+, and resazurin. The conversion of resazurin to resorufin was detected by fluorescence spectroscopy at Ex 540 nm Em 600 nm. The increase in fluorescence is proportional to 2-HG production. IC50 values are determined by interpolation from plots of relative fluorescence vs inhibitor concentration.

[2] = target: IDH1 R132H enzyme (Homo sapiens (Human), UniProt O75874, R132H); assay: Mutant IDH1 R132H biochemical assay; conditions: NADPH consumption, luminescent readout; 1.5 nM enzyme, 250 μM α-KG, 1 μM NADPH, 30 minutes, 32° C.; test range 0.002-10 μM
Sequence of IDH1 R132H enzyme (O75874 whole entry R132H): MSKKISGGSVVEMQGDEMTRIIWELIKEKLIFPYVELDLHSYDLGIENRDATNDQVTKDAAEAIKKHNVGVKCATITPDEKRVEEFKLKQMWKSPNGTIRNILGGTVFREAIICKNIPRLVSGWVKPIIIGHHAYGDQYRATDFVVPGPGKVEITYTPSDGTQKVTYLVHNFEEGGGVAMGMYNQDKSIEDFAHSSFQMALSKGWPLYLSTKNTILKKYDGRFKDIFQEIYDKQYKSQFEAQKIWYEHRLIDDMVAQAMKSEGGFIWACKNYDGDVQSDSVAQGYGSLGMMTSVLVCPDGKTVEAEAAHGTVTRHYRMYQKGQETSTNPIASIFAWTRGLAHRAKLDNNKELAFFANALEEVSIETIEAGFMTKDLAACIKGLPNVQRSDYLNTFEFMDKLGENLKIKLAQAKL
Method: mIDH1 catalyzes the NADPH-dependent reduction of alpha-ketoglutarate (α-KG) to (2R)-2-hydroxyglutarate (2-HG). NADPH consumption was measured by luminescent readout.
The biochemical reactions were performed at 32° C. in 384-well plates using a reaction volume of 41 μl and the following assay buffer conditions: 50 mM Tris pH 7.5, 100 mM NaCl, 20 mM MgCl2, 0.05% BSA, 0.01% Brij, 1 μM NADPH, and 250 μM α-KG. […] Test compounds were used in a concentration range between 0.002 and 10 μM. The final DMSO concentration was 2.4%.
The reaction was incubated for 30 minutes, then 40 μl of detection mix (0.75 μg/ml Luciferase, 0.02 U/ml Oxidoreductase, 4 μg/ml FMN, 2 μl/ml Decanal/Ethanol, 50 mM Tris pH 7.5, 0.5% Glycerin, 0.01% Tween-20, 0.05% BSA) was added. Luminescence was measured on a luminescent reader (10 seconds measuring time, 1 second integration period, 30% sensitivity). The decrease in luminescence is proportional to mIDH1 activity. IC50 values are determined by interpolation from plots of relative luminescence versus inhibitor concentration.

Sequence of mutated isocitrate dehydrogenase (mIDH) protein overexpressed in LN229 R132H cells (O75874 whole entry R132H): as above

SMILES | IC50 [1] [nM] | IC50 [2] [nM]
C[C@H]1C[C@@H](n2c(Nc3ccc(OC(F)(F)F)cc3)nc3cc(-c4ccnn4C)ccc32)CC(C)(C)C1 (stereo in doubt) [Example 2-20] | 4000 | –
Cc1nc(-c2ccc3c(c2)nc(Nc2ccc(OC(F)(F)F)cc2)n3C2CC(C)(C)CC(C)(C)C2)no1 [Example 2-26, 5-(5-Methyl-1,2,4-oxadiazol-3-yl)-1-(3,3,5,5-tetramethylcyclohexyl)-N-[4-(trifluoromethoxy)phenyl]-1H-benzimidazol-2-amine] | 10000 | 220
Cc1n[nH]c(C)c1-c1ccc2c(c1)nc(Nc1ccc(SC(F)(F)F)cc1)n2[C@H]1C[C@@H](C)CC(C)(C)C1 (stereo in doubt) [Example 2-10-2] | 3000 | 140
Cc1n[nH]c(C)c1-c1ccc2c(c1)nc(Nc1ccc(OC(F)(F)F)cc1)n2[C@@H]1C[C@H](C)CC(C)(C)C1 (stereo in doubt) [Example 2-5-1] | – | 670
C[C@@H]1C[C@H](n2c(Nc3ccc(OC(F)(F)F)cc3)nc3cc(-c4cnn(C)c4)ccc32)CC(C)(C)C1 (stereo in doubt) [Example 2-13-2] | – | 1000
C[C@H]1C[C@@H](n2c(Nc3ccc(OC(F)(F)F)cc3)nc3cc(-c4ccn[nH]4)ccc32)CC(C)(C)C1 (stereo in doubt) [Example 2-8] | 2000 | 130
CC1(C)CC(n2c(Nc3ccc(OC(F)(F)F)cc3)nc3cc(-c4nnn[nH]4)ccc32)CC(C)(C)C1 [Example 2-28, 1-(3,3,5,5-tetramethylcyclohexyl)-5-(1H-tetrazol-5-yl)-N-[4-(trifluoromethoxy)-phenyl]-1H-benzimidazol-2-amine] | 200 | 70
CCOc1noc(C)c1-c1ccc2c(c1)nc(Nc1ccc(OC(F)(F)F)cc1)n2[C@H]1C[C@@H](C)CC(C)(C)C1 (racemic) [Example 2-35, (±) 5-(3-ethoxy-5-methyl-1,2-oxazol-4-yl)-N-[4-(trifluoromethoxy)phenyl]-1-[(cis)-3,3,5-trimethylcyclohexyl]-1H-benzimidazol-2-amine] | – | 240
C[C@H]1C[C@@H](n2c(Nc3ccc(OC(F)(F)F)cc3)nc3cc(-c4cn[nH]c4)ccc32)CC(C)(C)C1 (stereo in doubt) [Example 2-4] | 600 | 80
Cc1n[nH]c(C)c1-c1ccc2c(c1)nc(Nc1ccc(C(F)(F)F)cc1)n2[C@H]1C[C@@H](C)CC(C)(C)C1 (stereo in doubt) [Example 2-24-2] | 7000 | 140
Cc1cc(-c2ccc3c(c2)nc(Nc2ccc(OC(F)(F)F)cc2)n3[C@@H]2C[C@H](C)CC(C)(C)C2)n(C)n1 (stereo in doubt) [Example 2-12-1] | – | 4300
Cc1cc(-c2ccc3c(c2)nc(Nc2ccc(OC(F)(F)F)cc2)n3[C@H]2C[C@@H](C)CC(C)(C)C2)n(C)n1 (stereo in doubt) [Example 2-12-2] | – | 1600
Cc1noc(C)c1-c1ccc2c(c1)nc(Nc1ccc(C(F)(F)F)cc1)n2[C@H]1C[C@@H](C)CC(C)(C)C1 (stereo in doubt) [Example 2-23-2] | 10000 | 180
Cc1nnc(-c2ccc3c(c2)nc(Nc2ccc(OC(F)(F)F)cc2)n3C2CC(C)(C)CC(C)(C)C2)o1 [Example 2-25, 5-(5-Methyl-1,3,4-oxadiazol-2-yl)-1-(3,3,5,5-tetramethylcyclohexyl)-N-[4-(trifluoromethoxy)phenyl]-1H-benzimidazol-2-amine] | – | 130
Cc1n[nH]c(C)c1-c1ccc2c(c1)nc(Nc1ccc(OC(F)(F)F)cc1)n2[C@H]1C[C@@H](C)CC(C)(C)C1 (stereo in doubt) [Example 2-5-2] | 1500 | 1540
C[C@H]1C[C@@H](n2c(Nc3ccc(SC(F)(F)F)cc3)nc3cc(-c4ccn[nH]4)ccc32)CC(C)(C)C1 (stereo in doubt) [Example 2-22] | 2500 | 770

SMILES | IC50 [1] [nM] | IC50 [2] [nM]
C[C@H]1C[C@@H](n2c(Nc3ccc(OC(F)(F)F)cc3)nc3cc(-c4cnn(C)c4)ccc32)CC(C)(C)C1 (stereo in doubt) [Example 2-13] | 5000 | 1100
COC(=O)c1ccc(-c2ccc3c(c2)nc(Nc2ccc(OC(F)(F)F)cc2)n3[C@H]2C[C@@H](C)CC(C)(C)C2)cc1 (racemic) [Example 2-18, (±) Methyl 4-(2-{[4-(trifluoromethoxy)phenyl]amino}-1-[(cis)-3,3,5-trimethylcyclohexyl]-1H-benzimidazol-5-yl)benzoate] | – | 4000
Cc1cc(-c2ccc3c(c2)nc(Nc2ccc(OC(F)(F)F)cc2)n3[C@H]2C[C@@H](C)CC(C)(C)C2)cc(C)c1O (racemic) [Example 2-34, (±) 2,6-dimethyl-4-(2-{[4-(trifluoromethoxy)phenyl]amino}-1-[(cis)-3,3,5-trimethylcyclohexyl]-1H-benzimidazol-5-yl)phenol] | – | 180
COC(=O)c1cccc(-c2ccc3c(c2)nc(Nc2ccc(OC(F)(F)F)cc2)n3[C@H]2C[C@@H](C)CC(C)(C)C2)c1 (racemic) [Example 2-15, (±) Methyl 3-(2-{[4-(trifluoromethoxy)phenyl]amino}-1-[(cis)-3,3,5-trimethylcyclohexyl]-1H-benzimidazol-5-yl)benzoate] | – | 1500
Cc1noc(C)c1-c1ccc2c(c1)nc(Nc1ccc(OC(F)(F)F)cc1)n2[C@H]1C[C@@H](C)CC(C)(C)C1 (single isomer, unassigned) [Example 2-1-1, 5-(3,5-dimethyl-1,2-oxazol-4-yl)-N-[4-(trifluoromethoxy)phenyl]-1-[(cis)-3,3,5-trimethylcyclohexyl]-1H-benzimidazol-2-amine] | – | 240
C[C@@H]1C[C@H](n2c(Nc3ccc(OC(F)(F)F)cc3)nc3cc(-c4cn(C)nc4C(F)(F)F)ccc32)CC(C)(C)C1 (stereo in doubt) [Example 2-16-2] | – | 780
C[C@H]1C[C@@H](n2c(Nc3ccc(OC(F)(F)F)cc3)nc3cc(-c4ccc(C(N)=O)cc4)ccc32)CC(C)(C)C1 (stereo in doubt) [Example 2-17] | – | 440
C[C@@H]1C[C@H](n2c(Nc3ccc(OC(F)(F)F)cc3)nc3cc(-c4ccc(C(=O)O)cc4)ccc32)CC(C)(C)C1 (racemic) [Example 2-3, (±) 4-(2-{[4-(trifluoromethoxy)phenyl]amino}-1-[(cis)-3,3,5-trimethylcyclohexyl]-1H-benzimidazol-5-yl)benzoic acid] | – | 460
C[C@H]1C[C@@H](n2c(Nc3ccc(OC(F)(F)F)cc3)nc3cc(-c4cn(C)nc4C(F)(F)F)ccc32)CC(C)(C)C1 (stereo in doubt) [Example 2-16] | – | 290
C[C@@H]1C[C@H](n2c(Nc3ccc(OC(F)(F)F)cc3)nc3cc(-c4cc(F)c(O)c(F)c4)ccc32)CC(C)(C)C1 (racemic) [Example 2-33, (±) 2,6-difluoro-4-(2-{[4-(trifluoromethoxy)phenyl]amino}-1-[(cis)-3,3,5-trimethylcyclohexyl]-1H-benzimidazol-5-yl)phenol] | – | 670
COc1cc(-c2ccc3c(c2)nc(Nc2ccc(OC(F)(F)F)cc2)n3[C@@H]2C[C@H](C)CC(C)(C)C2)ccn1 (stereo in doubt) [Example 2-14] | – | 1300
C[C@H]1C[C@@H](n2c(Nc3ccc(OC(F)(F)F)cc3)nc3cc(-c4cnn(C)c4)ccc32)CC(C)(C)C1 (stereo in doubt) [Example 2-13-1] | – | 240
C[C@H]1C[C@H](n2c(Nc3ccc(OC(F)(F)F)cc3)nc3cc(-c4nnn[nH]4)ccc32)CC(C)(C)C1 (racemic) [Example 2-27, (±) 5-(1H-tetrazol-5-yl)-N-[4-(trifluoromethoxy)phenyl]-1-[(trans)-3,3,5-trimethylcyclohexyl]-1H-benzimidazol-2-amine] | – | 1800
C[C@H]1C[C@@H](n2c(Nc3ccc(OC(F)(F)F)cc3)nc3cc(-c4cn(C)nc4C(F)(F)F)ccc32)CC(C)(C)C1 (stereo in doubt) [Example 2-16-1] | – | 7800
Cc1noc(C)c1-c1ccc2c(c1)nc(Nc1ccc(OC(F)(F)F)cc1)n2[C@H]1C[C@@H](C)CC(C)(C)C1 (single isomer, unassigned) [Example 2-1-2, 5-(3,5-dimethyl-1,2-oxazol-4-yl)-N-[4-(trifluoromethoxy)phenyl]-1-[(cis)-3,3,5-trimethylcyclohexyl]-1H-benzimidazol-2-amine] | – | 70
